Measured values: patent US8394391B2, “Drug delivery vehicle that mimics viral properties” (University of Utah Research Foundation, priority 2007, dated 2013)

Key:
Format in all cases: cell-based, human
A2780/AD cells [1] = experiment: Migration to neighboring cells in co-culture (confocal slice images); details: for secondary infection of co-cultured untreated cells: 20 hours co-culture
Description: Experiments were conducted to verify migration of virogels to neighboring cells. Cells grown on glass slide fragments (“plates”) (1×1 cm) were pre-treated with free DOX (10 μg/ml) or equivalent DOX-loaded virogels or NPs (controls), E. S. Lee, K. Na & Y. H. Bae, Polymeric micelle for tumor pH and folate-mediated targeting, 91 J. Control. Release 103-113 (2003)) for 4 hours. These pretreated cells (A cells) were washed with PBS (pH 7.4) and co-cultured with fresh cells (B-0 cells) on new glass slide fragments for 20 hours in fresh culture medium. Co-culturing was carried out by placing a plate containing A cells and a plate containing B-0 cells next to each other, but separated by 1 mm, in a culture dish such that the A cells and B-0 cells continuously shared fresh culture medium. The A cells served as a potential source for migration of virogels, and the B-0 cells were a potential site for secondary virogel infection.
After the B-0 cells were co-cultured with A cells for 20 hours, such B-0 cells were redesignated as B-1 cells. B-1 cells were then withdrawn from the culture dish and were co-cultured with fresh cells on new glass slide fragments for 20 hours in fresh culture medium. These fresh cells that had been co-cultured with B-1 cells were termed B-2 cells. These B-2 cells were then also withdrawn and co-cultured with fresh cells on new glass slide fragments for 20 hours in fresh culture medium. These fresh cells that had been co-cultured with B-2 cells were termed B-3 cells. Confocal slice images were obtained, as described above, for observing fluorescent DOX in cells. To evaluate the effect of DOX on virogel migration, blank virogels (50 μg/ml) were tested using the same procedure. FITC-labeling (Example 2) was used to visualize the blank virogels.

A2780/AD cells [2] = experiment: MTT cell cytotoxicity, drug-resistant A2780/AD cells; details: DOX equivalent 5 μg/ml, 48 hours, pH 7.4
Description: (§1) A2780 and A2780/AD cells suspended in RPMI 1640 medium (200 μl) were seeded in a 96-well plate and cultured for 24 hours before testing. Free DOX (5 μg/ml) or equivalent DOX-loaded samples (virogels and control NPs) were added to the medium-removed 96-well plate for cell cytotoxicity tests. The pH of the culture medium was adjusted to pH 7.4 or pH 6.8 for 48 hours during the test, as described in A. Patchornik et al., supra. Cell cytotoxicity was measured using the tetrazolium salt MTT assay. E. S. Lee, K. Na & Y. H. Bae, 5 Nano Lett. 325-329 (2005); E. S. Lee, K. Na & Y. H. Bae, 103 J. Control. Release 405-418 (2005).

A2780 cells = experiment: MTT cell cytotoxicity, A2780 cells; details: drug-sensitive A2780; DOX equivalent 5 μg/ml; 48 hours; pH 7.4
Description: as §1

COc1cccc2c1C(=O)c1c(O)c3c(c(O)c1C2=O)C[C@@](O)(C(=O)CO)C[C@@H]3O[C@H]1C[C@H](N)[C@H](O)[C@H](C)O1 [free DOX, doxorubicin]
distribution of fluorescence within primary treated cells (A cells) (A2780/AD cells [1]; 4 hours pre-treatment, DOX 10 μg/ml equivalent (blank virogels 50 μg/ml, FITC)): only limited fractions of DOX diffusing into cells | migration from infected A2780/AD cells to untreated cells (A2780/AD cells [1]; FIG. 7 legend, overall): no such migration | secondary infection of co-cultured untreated cells (A2780/AD cells [1]; first cycle, B-1 cells): No further cell effects | secondary infection of co-cultured untreated cells (A2780/AD cells [1]; second cycle, B-2 cells): No further cell effects | secondary infection of co-cultured untreated cells (A2780/AD cells [1]; third cycle, B-3 cells): No further cell effects | viability (A2780/AD cells [2]): 80% | viability (A2780 cells): 30%
